Assay results from patent US20080312206A1, “Chemical Compounds-149” (AstraZeneca AB, priority 2005, published 2008).

molecular target: T1, CSF-1R (Homo sapiens, UniProt P07333); assay: CSF-1R In Vitro AlphaScreen Assay; format: biochemical; conditions: purified His-tagged kinase domain of CSF-1R, pEY substrate, 90 μM ATP
T1 construct: amino acids 568-912, GeneBank ID NM_005211; His; made in house; host or cells: baculovirus infected SF+Express insect cells
T1 sequence (P07333 568-912): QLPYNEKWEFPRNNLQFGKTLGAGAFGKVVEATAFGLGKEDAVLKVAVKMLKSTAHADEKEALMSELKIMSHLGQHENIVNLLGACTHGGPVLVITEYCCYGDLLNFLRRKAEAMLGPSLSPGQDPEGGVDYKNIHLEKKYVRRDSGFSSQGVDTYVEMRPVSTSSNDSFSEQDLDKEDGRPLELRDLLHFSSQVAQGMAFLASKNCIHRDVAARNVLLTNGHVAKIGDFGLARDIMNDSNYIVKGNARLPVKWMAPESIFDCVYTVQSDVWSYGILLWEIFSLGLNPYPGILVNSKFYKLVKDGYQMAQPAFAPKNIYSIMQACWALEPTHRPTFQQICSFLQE
Procedure: CSF-1R In Vitro AlphaScreen Assay
Activity of purified CSF-1R was determined in vitro using an Amplified Luminescent Proximity Homogeneous Assay (ALPHA)(Perkin Elmer), which measures phosphorylation of the CSF-1R substrate, biotinylated poly-glutamine-tyrosine peptide (pEY-HTRF CisBio 61GT0BLD), as described below. The His-tagged kinase domain of CSF-1R (i.e., amino acids 568-912, GeneBank ID NM_005211; (see page 25 lines 13-19 of WO 2006/067445 for the sequence listing)) was purified from baculovirus infected SF+Express insect cells (1.4×10^6 cells/ml), French pressed and chromatographed through subsequent Qiagen Ni-NTA, Superflow Mono Q HR 10/10, and Superdex 200 SEC columns. Typical yield was 322 ug/l of cell pellet at >95% purity.
The phosphorylation of the CSF-1R substrate in the presence and absence of the compound of interest was determined. Briefly, 0.2 pM of purified CSF-1R, 5 nM pEY substrate, and compound were preincubated in 1× buffer for 30 minutes at 25° C. Reactions were initiated with addition of 90 μM adenosine triphosphate (ATP) in 1× buffer and incubated at 25° C. for 40 minutes and reactions stopped by addition of 5 μl of detection mix consisting of 136 mM NaCl, 102 mM ethylenediamine tetraacetic acid, 1.65 mg/ml BSA, 40 ug/ml Streptavidin donor beads (Perkin Elmer 6760620M), 40 ug/ml pEY100 acceptor beads (Perkin Elmer 6760620M). Plates were incubated at 25° C. for 18 hours in the dark. Phosphorylated substrate was detected by an EnVision plate reader (Perkin Elmer) 680 nm excitation, 520-620 nm emission. Data was graphed and IC50s calculated using Excel Fit (Microsoft).

Row | IC50 [nM] | SMILES
1 | 10 | Cc1cc(C)cc(C(=O)Nc2ccc(Cl)c(C(=O)Nc3cnc(C(C)C)s3)c2)c1 [Example 20, 2-Chloro-5-[(3,5-dimethylbenzoyl)amino]-N-(2-isopropyl-1,3-thiazol-5-yl)benzamide]
2 | 13 | CC(C)c1ncc(NC(=O)c2cc(NC(=O)c3cc(F)cc(C(F)(F)F)c3)ccc2Cl)s1 [Example 21, 2-Chloro-5-{[3-fluoro-5-(trifluoromethyl)benzoyl]amino}-N-(2-isopropyl-1,3-thiazol-5-yl)benzamide]
3 | 7 | CON(C)C(=O)c1ncc(NC(=O)c2cc(NC(=O)c3cccc(C(C)(C)C#N)c3)ccc2C)s1 [Example 15, 5-[(5-{[3-(1-Cyano-1-methylethyl)benzoyl]amino}-2-methylbenzoyl)amino]-N-methoxy-N-methyl-1,3-thiazole-2-carboxamide]
